Data reported in the RepoRT retention time repository.

Assay: HILIC, HILICON iHILIC-(P) Classic, HILIC, PEEK, 100 × 2.1 mm, 5 µm, 40 °C, 0.15 mL/min, estimated dead time 1.5 min; A: water + 20 mM ammonium carbonate + 5 µM medronic acid; B: 10% water + 90% acetonitrile + 2 mM ammonium carbonate + 0.5 µM medronic acid; gradient (min/%B) 0/95 18/55 19/20 22/20 22.5/95 24/95 26/95
Conditions: stereoisomer not certain
For `O=C(O)CCC(=O)C(=O)O` [2-Oxoglutaric acid], the LC retention time was 13 min. In the case of `Nc1ncnc2c1ncn2C1OC(COP(=O)(O)OP(=O)(O)O)C(O)C1O` (centres undefined) [ADP], the LC retention time is reported as 12 min. Work on `Nc1ncnc2c1ncn2C1OC(COP(=O)(O)O)C(O)C1O` (centres undefined) [AMP] yielded an LC retention time of 10.4 min. Work on `Nc1ncnc2c1ncn2C1OC(COP(=O)(O)OP(=O)(O)OP(=O)(O)O)C(O)C1O` (centres undefined) [ATP] yielded an LC retention time of 14.6 min. Compound `CC(=O)SCCNC(=O)CCNC(=O)C(O)C(C)(C)COP(=O)(O)OP(=O)(O)OCC1OC(n2cnc3c(N)ncnc32)C(O)C1OP(=O)(O)O` (centres undefined) [Acetyl-CoA] has an LC retention time of 10 min. `Nc1ncnc2c1ncn2C1OC(CO)C(O)C1O` (centres undefined) [Adenosine] showed an LC retention time of 3.83 min. `NC(N)=NCCCC(N)C(=O)O` (centres undefined) [Arginine] gave an LC retention time of 18.9 min. `NC(=O)CC(N)C(=O)O` (centres undefined) [Asparagine] gave an LC retention time of 10.4 min. `NC(CC(=O)O)C(=O)O` (centres undefined) [Aspartic Acid] gave an LC retention time of 10.3 min. `O=C(O)CC(O)(CC(=O)O)C(=O)O` [Citric acid] gave an LC retention time of 15.3 min. `CC(C)(COP(=O)(O)OP(=O)(O)OCC1OC(n2cnc3c(N)ncnc32)C(O)C1OP(=O)(O)O)C(O)C(=O)NCCC(=O)NCCS` (centres undefined) [CoenzymeA] showed an LC retention time of 11.6 min. Work on `O=C(CO)C(O)C(O)C(O)COP(=O)(O)O` (centres undefined) [Fructose 6-phosphate] yielded an LC retention time of 12.3 min. In the case of `O=P(O)(O)OCC1OC(O)(COP(=O)(O)O)C(O)C1O` (centres undefined) [Fructose-1,6-bisphosphate], the LC retention time is reported as 16.3 min. For `O=C(O)C=CC(=O)O` [Fumaric Acid], the LC retention time was 12.7 min. With `NC(CCC(=O)NC(CS)C(=O)NCC(=O)O)C(=O)O` (centres undefined) [GSH] the LC retention time was 9.58 min. Compound `NC(CCC(=O)NC(CSSCC(NC(=O)CCC(N)C(=O)O)C(=O)NCC(=O)O)C(=O)NCC(=O)O)C(=O)O` (centres undefined) [GSSG] has an LC retention time of 15.1 min. For `O=P(O)(O)OC1OC(CO)C(O)C(O)C1O` (centres undefined) [Glucose-1-phosphate], the LC retention time was 12.3 min. `O=P(O)(O)OCC1OC(O)C(O)C(O)C1O` (centres undefined) [Glucose-6-phosphate] gave an LC retention time of 13.7 min. Work on `NC(CCC(=O)O)C(=O)O` (centres undefined) [Glutamic acid] yielded an LC retention time of 9.88 min. With `NC(=O)CCC(N)C(=O)O` (centres undefined) [Glutamine] the LC retention time was 10.2 min. With `O=P(O)(O)OCC(O)CO` (centres undefined) [Glycerol-3-phosphate] the LC retention time was 11.1 min. In the case of `O=C(O)CC(C(=O)O)C(O)C(=O)O` (centres undefined) [Isocitric acid], the LC retention time is reported as 15.9 min. Work on `CC(O)C(=O)O` (centres undefined) [Lactic Acid] yielded an LC retention time of 2.68 min. With `NCCCCC(N)C(=O)O` (centres undefined) [Lysine] the LC retention time was 18.7 min. `O=C(O)CC(O)C(=O)O` (centres undefined) [Malic Acid] showed an LC retention time of 11.9 min. `NC(=O)C1=CN(C2OC(COP(=O)(O)OP(=O)(O)OCC3OC(n4cnc5c(N)ncnc54)C(O)C3O)C(O)C2O)C=CC1` (centres undefined) [NADH] showed an LC retention time of 9.88 min. Compound `NC(=O)C1=CN(C2OC(COP(=O)(O)OP(=O)(O)OCC3OC(n4cnc5c(N)ncnc54)C(OP(=O)(O)O)C3O)C(O)C2O)C=CC1` (centres undefined) [NADPH] has an LC retention time of 16.4 min. With `NC(=O)c1ccc[n+](C2OC(COP(=O)(O)OP(=O)(O)OCC3OC(n4cnc5c(N)ncnc54)C(OP(=O)(O)O)C3O)C(O)C2O)c1` (centres undefined) [NADP] the LC retention time was 14.5 min. For `NC(=O)c1ccc[n+](C2OC(COP(=O)(O)OP(=O)(O)OCC3OC(n4cnc5c(N)ncnc54)C(O)C3O)C(O)C2O)c1` (centres undefined) [NAD], the LC retention time was 10.3 min. `C=C(OP(=O)(O)O)C(=O)O` [PEP] showed an LC retention time of 14.6 min. Compound `O=P(O)(O)OCC1OC(O)C(O)C1O` (centres undefined) [Pentose-phosphate] has an LC retention time of 11.5 min. With `O=C(O)CCC(=O)O` [Succinic Acid] the LC retention time was 11.2 min. In the case of `O=C(CO)COP(=O)(O)O` [Triose phosphate], the LC retention time is reported as 11.4 min. Compound `CC(=O)NC1C(OP(=O)(O)OP(=O)(O)OCC2OC(n3ccc(=O)[nH]c3=O)C(O)C2O)OC(CO)C(O)C1O` (centres undefined) [UDP-GlcNAc] has an LC retention time of 12 min.
